Assays:
[1] = tested on: Tnfaip3 mRNA; experiment: Tnfaip3 mRNA in iBMDMs (quantitative PCR); format: cell-based, mouse; conditions: ox-dsDNA90 or CDNs, BAY11-7082 1 μM, 4 h pretreated, Fig. 4j,k, n = 3
Protocol: Total RNA was extracted from around 1 × 10^6 cultured cells per population and purified by employing an RNA simple Total RNA Kit (TIANGEN, Cat#DP419), Following column purification, RNA was immediately reversed to cDNA by implementing the PrimeScript reverse transcription reagent kit (Takara, RR047A) according to the manufacturer’s instructions. The concentration of RNA was measured with a NanoDrop 2000 (Thermo Fisher Scientific, USA). Reverse transcription polymerase chain reaction (qRT‒PCR) was performed using SYBR Premix Ex Taq (Takara, CAT#172-5124) in an ABI7500 real-time PCR system (Applied Biosystems, CA). The primer sequences are shown in Supplementary Table 2. Relative gene expression was presented as fold changes normalized by Gapdh using the 2^−ΔΔCt method.

[2] = tested on: A20; experiment: A20 protein expression in iBMDMs / BMDMs (immunoblot); format: cell-based, mouse
Protocol: (§1) For immunoblot analysis of kidney tissue, total protein lysates were prepared from renal tissue, which was ground in liquid nitrogen and then added to lysis buffer in a Total Protein Extraction Kit (Signalway Antibody, Cat#PE001). Samples were centrifuged at 12,000 rpm for 15 min at 4 °C, and the supernatant was collected immediately. For immunoblot analysis of cells, cultured cells after treatment were lysed with lysis buffer, which was premixed with protease and phosphatase inhibitors (Signalway Antibody, Cat#PE001). The samples were centrifuged at 12,000 r/min for 15 min at 4 °C, and the supernatant was collected immediately. Ultimately, both types of protein samples were then mixed with 4× Laemmli loading buffer (Bio-Rad, Cat#1610747) and denatured by boiling at 95 °C for 5 min.
(§2) Prepared protein samples were subjected to 6-15% SDS polyacrylamide gels and separated according to the protein concentrations. Then, the protein bands were transferred to polyvinylidene difluoride (PVDF) membranes by a wet transfer apparatus (Bio-Rad, USA). […] The protein bands were detected with an enhanced chemiluminescence kit (Millipore, Cat#WBKLS0500) using a gel imaging system (Bio-Rad, USA) for visualization and standardization of the amount of protein loaded. α-Tubulin was used as the internal control.

[3] = tested on: AKI mice; experiment: survival of AKI mice; format: in vivo, mouse; conditions: n = 10 per group
Protocol: (§3) Aristolochic acid I sodium salt was dissolved in PBS to 1 mg/mL and injected intraperitoneally at a dose of 10 mg/kg (body weight) every 24 h for 3 days; cisplatin was dissolved in PBS to 1.5 mg/mL for one-time intraperitoneal 25 mg/kg injection; LPS (Sigma, Cat#L2630) was dissolved in PBS to 2.5 mg/mL for one-time intraperitoneal 25 mg/kg injection; deoxyribonuclease I (DNase I, Sigma, Cat#SLBV1446) was dissolved in PBS to 1 mg/mL and injected intraperitoneally at a dose of 10 mg/kg at 4 h before cisplatin or AA I injection and every 24 h after injection. Disulfiram (MedChemExpress, CAS:97-77-8) was diluted in corn oil to 12.5 mg/mL and injected 50 mg/kg intraperitoneally every 24 h after cisplatin or AA I administration. Cu(II) (Sigma, Cat#344419) was dissolved in PBS to 30 µg/mL and administered intraperitoneally 6 h before disulfiram at a dose of 0.15 mg/kg; TNF-α (Peprotech, Cat#315-01 A) was dissolved in PBS to 10 µg/mL and injected at 100 µg/kg once through the caudal vein 24 h before cisplatin injection. Metformin (Sigma, Cat#D150959) was dissolved in PBS to 5 mg/mL and injected intraperitoneally at a dose of 50 mg/kg 24 h before cisplatin or AA I injection and every 24 h after injection. MCC950 (MedChem Express, CAS:256373-96-3) was dissolved in PBS to 5 mg/mL and injected intraperitoneally at a dose of 50 mg/kg 12 h before cisplatin or AA I injection and every 12 h after injection; berberine (APExBIO, Cat#N1368) was dissolved in PBS to 5 mg/mL and 5 mg/kg injected intraperitoneally at 36, 24 and 12 h before cisplatin; A20-derived-peptide was dissolved in ddH2O to 3 mg/mL and injected intraperitoneally at a dose of 15 mg/kg 1 h before cisplatin. To supervise the effects of various treatments on survival time and rate, the mice were observed, and survival curves were generated. To investigate the specific mechanisms, whole blood was retrieved from the orbit, serum was separated through centrifugation on the 4th day, and the mice were then sacrificed by cervical dislocation. Mice were randomly assigned in experiments, while there was no blinding during the animal experiments.

[4] = tested on: AKI mice; experiment: tubular injury / renal injury of AKI mice (HE histology); format: in vivo, mouse
Protocol: (§4) LPS (Sigma, Cat#L2630) was dissolved in PBS to 2.5 mg/mL for one-time intraperitoneal 25 mg/kg injection; deoxyribonuclease I (DNase I, Sigma, Cat#SLBV1446) was dissolved in PBS to 1 mg/mL and injected intraperitoneally at a dose of 10 mg/kg at 4 h before cisplatin or AA I injection and every 24 h after injection. Disulfiram (MedChemExpress, CAS:97-77-8) was diluted in corn oil to 12.5 mg/mL and injected 50 mg/kg intraperitoneally every 24 h after cisplatin or AA I administration. Cu(II) (Sigma, Cat#344419) was dissolved in PBS to 30 µg/mL and administered intraperitoneally 6 h before disulfiram at a dose of 0.15 mg/kg; TNF-α (Peprotech, Cat#315-01 A) was dissolved in PBS to 10 µg/mL and injected at 100 µg/kg once through the caudal vein 24 h before cisplatin injection. […] MCC950 (MedChem Express, CAS:256373-96-3) was dissolved in PBS to 5 mg/mL and injected intraperitoneally at a dose of 50 mg/kg 12 h before cisplatin or AA I injection and every 12 h after injection; berberine (APExBIO, Cat#N1368) was dissolved in PBS to 5 mg/mL and 5 mg/kg injected intraperitoneally at 36, 24 and 12 h before cisplatin; […] To supervise the effects of various treatments on survival time and rate, the mice were observed, and survival curves were generated. To investigate the specific mechanisms, whole blood was retrieved from the orbit, serum was separated through centrifugation on the 4th day, and the mice were then sacrificed by cervical dislocation. Mice were randomly assigned in experiments, while there was no blinding during the animal experiments. Renal function was evaluated based on serum creatinine level and histological features. Serum creatinine was determined in the Clinical Pharmacology Lab, Clinical Trial Center, WCH, SCU. The kidneys were extracted from euthanized mice, immediately fixed with 4% paraformaldehyde, and embedded in paraffin. Furthermore, the samples were cut into 5 µm thick sections. These tissue samples were subjected to hematoxylin-eosin (HE) and […] according to standard protocols with HE reagent (Biosharp, Cat#BL702B, BL703B) and Masson reagent (Servicebio, Cat#G1006-100ML). The pathological changes were detected through optical microscopy, and the tubulointerstitial injury score was determined as previously reported.

[5] = tested on: AKI mice; experiment: overall therapeutic effect in AKI mice; format: in vivo, mouse; conditions: for alleviation of AKI compared with MCC950: DNase I, disulfiram vs NLRP3 inhibitor MCC950
Protocol: as §3

[6] = tested on: GSDMD cleavage in iBMDMs; experiment: cleavage of GSDMD in iBMDMs after ox-self-DNA treatment (immunoblot); format: cell-based, mouse; conditions: AA-DNA with or without MCC950, Fig. 3i
Protocol: as §1, with “Ultimately, both types of protein samples were then mixed with 4× Laemmli loading buffer (Bio-Rad, Cat#1610747) and denatured by boiling at 95 °C for 5 min.” left out
as §2, with “concentrations.” for “concentrations. Then, the protein bands were transferred to polyvinylidene difluoride (PVDF) membranes by a wet transfer apparatus (Bio-Rad, USA).”
Self-DNA was isolated from the mouse kidney tissue using a DNeasy®Blood & Tissue Kit (QIAGEN, REF#69504) according to the manufacturer’s instructions. The isolated self-DNA were mixed with PicoGreen reagent, and then detected via employing SpectraMax iD3 microplate reader (Molecular Devices), with 502 nm incident ray and 523 nm emergent light. […]

[7] = tested on: AKI mice; experiment: renal fibrosis of AKI mice (Masson staining); format: in vivo, mouse; conditions: mice following injection of cisplatin; berberine 5 mg/kg i.p.; vs PBS
Protocol: LPS (Sigma, Cat#L2630) was dissolved in PBS to 2.5 mg/mL for one-time intraperitoneal 25 mg/kg injection; deoxyribonuclease I (DNase I, Sigma, Cat#SLBV1446) was dissolved in PBS to 1 mg/mL and injected intraperitoneally at a dose of 10 mg/kg at 4 h before cisplatin or AA I injection and every 24 h after injection. Disulfiram (MedChemExpress, CAS:97-77-8) was diluted in corn oil to 12.5 mg/mL and injected 50 mg/kg intraperitoneally every 24 h after cisplatin or AA I administration. Cu(II) (Sigma, Cat#344419) was dissolved in PBS to 30 µg/mL and administered intraperitoneally 6 h before disulfiram at a dose of 0.15 mg/kg; TNF-α (Peprotech, Cat#315-01 A) was dissolved in PBS to 10 µg/mL and injected at 100 µg/kg once through the caudal vein 24 h before cisplatin injection. […] Renal function was evaluated based on serum creatinine level and histological features. Serum creatinine was determined in the Clinical Pharmacology Lab, Clinical Trial Center, WCH, SCU. […] The pathological changes were detected through optical microscopy, and the tubulointerstitial injury score was determined as previously reported.

[8] = tested on: AKI mice; experiment: serum creatinine of AKI mice; format: in vivo, mouse; conditions: mice following injection of cisplatin; berberine 5 mg/kg i.p.; vs PBS
Protocol: as §4

[9] = tested on: NEK7; conditions: cited from earlier work
Description: Furthermore, we investigated the potential therapeutic medicines targeting to NEK7 and evaluated their effects on alleviating AKI. […] A ...

[10] = tested on: IL-1β; experiment: serum IL-1β of AKI mice (ELISA); format: in vivo, mouse; conditions: Cis or AA I AKI mice; DNase I 10 mg/kg i.p.
Protocol: Aristolochic acid I sodium salt was dissolved in PBS to 1 mg/mL and injected intraperitoneally at a dose of 10 mg/kg (body weight) every 24 h for 3 days; cisplatin was dissolved in PBS to 1.5 mg/mL for one-time intraperitoneal 25 mg/kg injection; LPS (Sigma, Cat#L2630) was dissolved in PBS to 2.5 mg/mL for one-time intraperitoneal 25 mg/kg injection; deoxyribonuclease I (DNase I, Sigma, Cat#SLBV1446) was dissolved in PBS to 1 mg/mL and injected intraperitoneally at a dose of 10 mg/kg at 4 h before cisplatin or AA I injection and every 24 h after injection. Disulfiram (MedChemExpress, CAS:97-77-8) was diluted in corn oil to 12.5 mg/mL and injected 50 mg/kg intraperitoneally every 24 h after cisplatin or AA I administration. Cu(II) (Sigma, Cat#344419) was dissolved in PBS to 30 µg/mL and administered intraperitoneally 6 h before disulfiram at a dose of 0.15 mg/kg; TNF-α (Peprotech, Cat#315-01 A) was dissolved in PBS to 10 µg/mL and injected at 100 µg/kg once through the caudal vein 24 h before cisplatin injection. […]
To measure the levels of CXCL10, IFN-β, IL-1β, and IL-18, mouse serum or cell culture medium was collected and measured by ELISA (NeoBioscience, China) according to the manufacturer’s instructions.

Molecule: Cc1ccc(S(=O)(=O)/C=C/C#N)cc1 [BAY11-7082]
- increased expression of A20, mRNA level [1]: almost completely inhibited the increased expression of A20 at both the mRNA and protein levels
- increased expression of A20, protein level ([2]; iBMDMs, ox-dsDNA90 or CDNs, BAY11-7082 1 μM, 4 h pretreated, Fig. 4l): almost completely inhibited the increased expression of A20 at both the mRNA and protein levels
- increased expression of A20 under ox-DNA stimulation ([2]; ox-DNA stimulation, BAY11-7082, discussion): abrogated

Molecule: CC(C)(O)c1coc(S(=O)(=O)NC(=O)Nc2c3c(cc4c2CCC4)CCC3)c1 [MCC950]
- survival ([3]; mice treated with nephrotoxic drugs (Cis, AA I), MCC950 50 mg/kg i.p. 12 h before and every 12 h after): improved the survival
- tubular injury (in words) ([4]; mice treated with nephrotoxic drugs (Cis, AA I), MCC950 50 mg/kg i.p.): attenuate tubular injury
- progression of AKI ([5]; MCC950 50 mg/kg i.p.): significantly alleviated the progression of AKI
- cleavage of GSDMD [6]: significantly reduced the cleavage of GSDMD

Molecule: COc1ccc2cc3[n+](cc2c1OC)CCc1cc2c(cc1-3)OCO2 [berberine]
- survival ([3]; mice following injection of cisplatin, berberine 5 mg/kg i.p. at 36, 24 and 12 h before, vs PBS): improved survival
- renal injury (in words) ([4]; mice following injection of cisplatin, berberine 5 mg/kg i.p., vs PBS): attenuated renal injury
- renal fibrosis [7]: decreased renal fibrosis
- serum creatinine (in words) [8]: decreased serum creatinine
- NEK7 activity (literature) [9]: inhibit NEK7 activity

Molecule: CCN(CC)C(=S)SSC(=S)N(CC)CC [disulfiram, Disulfiram]
- survival ([3]; Cis or AA I mice, disulfiram 50 mg/kg i.p. every 24 h, Cu(II) 0.15 mg/kg i.p. 6 h before disulfiram): improved survival with effects comparable to those of DNase I
- alleviation of AKI compared with MCC950 [5]: more effective in alleviating AKI than the NLRP3 inhibitor MCC950

Molecule: deoxyribonuclease I [DNase I]
- serum level of IL-1β (in words) [10]: significantly reduced serum level of IL-1β
- therapeutic effect compared to Sting-knockout mice ([5]; DNase I 10 mg/kg i.p. 4 h before cisplatin or AA I and every 24 h after): more pronounced compared to that in Sting^−/− mice
- alleviation of AKI compared with MCC950 [5]: more effective in alleviating AKI than the NLRP3 inhibitor MCC950

— publication PMC12032302, “A20 attenuates oxidized self-DNA-mediated inflammation in acute kidney injury” (Signal Transduction and Targeted Therapy, 2025)
